Experiments:
[1] = molecular target: human CB2 receptor (hCB2) (Homo sapiens, UniProt P34972); assay: cAMP assay (LANCE TR-FRET) in CHO-K1 cells expressing hCB2; format: cell-based; conditions: for Emax: CHO-K1, intrinsic activity: percent maximal activation compared to full activation by CP55,940 (1 μM = 100%), read-out: hCB2 % Max Range; for EC50: CHO-K1 cells stably expressing hCB2, intracellular cAMP, NKH-477 prestimulated, average of at least three replicates
Description: (§1) The ability of compounds to act as agonists or inverse agonists at human CB2 and CB1 receptors (hCB2, hCB1, respectively) was determined by measuring changes in intracellular cAMP levels. Chinese Hamster Ovary (CHO-K1) cell lines stably expressing hCB2 (Genebank: X74328) or hCB1 (Genebank: X54937) were purchased from Euroscreen (Gosselies, Belgium).
(§2) Cell lines were grown in suspension in EX-CELL 302 CHO Serum-free medium (Sigma, catalog #14324C) supplemented with 1% Fetal Bovine Serum, glutamine and with or without non-essential amino-acids under 0.4 mg/mL G418 selection.
(§3) Receptor mediated responses were determined by measuring changes in intracellular cAMP using LANCE cAMP detection kit (catalog #AD0264, PerkinElmer, Wellesley, Mass.) based on time-resolved fluorescence resonance energy transfer (TR-FRET). Changes in cAMP were determined in cells pre-incubated with IBMX (isobutyl methylxanthine) and prestimulated with NKH-477 (a water soluble forskolin derivative, catalog #1603, Tocris, Ellisville, Mo.) to increase basal cAMP levels as detailed below.
(§4) On the day of the experiment, cells were spun at low speed for 5 min at room temperature. The supernatant was removed and cells were resuspended in stimulation buffer (Hanks Buffered Salt Solution/5 mM HEPES, containing 0.5 mM IBMX (catalog #17018, Sigma) and 0.02% BSA (PerkinElmer, catalog #CR84-100)). Cell clumps were removed by filtering through cell strainer 40 μm (BD Falcon, Discovery Labware, Bedford, Mass.) and diluted to 2×10^5 cells/mL. Antibody supplied with the LANCE cAMP immunoassay kit was then added according to the manufacturer's instructions. An aliquot of cells was taken for un-induced controls. To the remaining cells was added NKH-477 (a water soluble forskolin derivative, Tocris catalog #1603) to a final concentration of 2-8 μM. Cells were then incubated for either 25 or 30 min at room temperature prior to adding to Proxiplates containing test compounds (final DMSO concentration was less than 0.5%) with a Multidrop bulk dispenser, followed by a sixty minute incubation at room temperature. The response was stopped by addition of the detection mix supplied with the LANCE kit.
(§5) The reagents were allowed to equilibrate for three hours prior to reading on an Envision multi-mode detector (PerkinElmer). TR-FRET was measured using a 330-380 nm excitation filter, 615 and 665 nm emission filters, dichroic mirror 380 nm and Z=1 mm.
(§6) Cyclic AMP concentrations in each well were back-calculated from a cAMP standard curve run concurrently during each assay. Each plate contained 16 wells of forskolin stimulated cells and 16 wells of forskolin plus CP55,940-treated. CP55,940-treated cells were treated with CP55,940 (Tocris catalog #0949) at 1 μM and the maximal response was used as the full range (100%) standard. WIN55,212 (Tocris catalog #1038) was used as an internal standard. Concentrations of cAMP were expressed as a percent of the difference of these two groups of wells. Concentration-response data including EC50 (the concentration of compound producing 50% of the maximal response) and intrinsic activity (the percent maximal activation compared to full activation by CP55,940) were determined using a four-parameter non-linear regression algorithm (Xlfit equation 251, IDBS). Assays were performed with at least three replicates per compound and averaged results for the several compounds of the invention are shown in Table I.

[2] = molecular target: human CB1 receptor (hCB1) (Homo sapiens, UniProt P21554); assay: cAMP assay (LANCE TR-FRET) in CHO-K1 cells expressing hCB1; format: cell-based; conditions: activity on hCB1 represents inverse agonism; for Emax: CHO-K1, percent of range defined by CP55,940 (1 μM = 100%), read-out: hCB1 % Max Range; for EC50: CHO-K1 cells stably expressing hCB1, intracellular cAMP, NKH-477 prestimulated
Description: as §1, §2, §3, §4, §5
as §6, with “IDBS).” for “IDBS). Assays were performed with at least three replicates per compound and averaged results for the several compounds of the invention are shown in Table I.”

Sequence of human CB1 receptor (hCB1) (P21554 whole entry): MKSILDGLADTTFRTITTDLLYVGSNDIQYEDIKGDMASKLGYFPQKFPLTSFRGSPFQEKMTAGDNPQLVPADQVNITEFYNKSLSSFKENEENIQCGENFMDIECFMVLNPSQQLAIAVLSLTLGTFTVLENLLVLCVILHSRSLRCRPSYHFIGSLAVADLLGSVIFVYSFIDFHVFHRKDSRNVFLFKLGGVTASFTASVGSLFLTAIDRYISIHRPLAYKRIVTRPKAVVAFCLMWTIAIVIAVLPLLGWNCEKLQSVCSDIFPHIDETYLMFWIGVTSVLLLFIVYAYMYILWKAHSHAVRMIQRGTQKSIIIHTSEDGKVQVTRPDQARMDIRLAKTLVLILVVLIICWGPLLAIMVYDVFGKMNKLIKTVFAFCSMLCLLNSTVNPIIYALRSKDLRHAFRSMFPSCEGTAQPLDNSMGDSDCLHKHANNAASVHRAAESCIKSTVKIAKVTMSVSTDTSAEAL
Sequence of human CB2 receptor (hCB2) (P34972 whole entry): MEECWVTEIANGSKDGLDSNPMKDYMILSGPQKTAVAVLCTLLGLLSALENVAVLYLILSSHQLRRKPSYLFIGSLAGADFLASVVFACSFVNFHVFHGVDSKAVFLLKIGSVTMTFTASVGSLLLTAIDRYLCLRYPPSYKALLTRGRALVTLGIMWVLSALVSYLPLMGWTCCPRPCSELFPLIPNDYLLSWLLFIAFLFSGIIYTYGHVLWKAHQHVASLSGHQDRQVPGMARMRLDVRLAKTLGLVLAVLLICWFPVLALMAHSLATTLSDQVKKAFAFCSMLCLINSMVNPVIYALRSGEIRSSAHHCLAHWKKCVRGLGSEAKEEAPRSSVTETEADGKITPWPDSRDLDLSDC

| Compound | Emax [1] [%] | EC50 [1] [nM] | Emax [2] [%] | EC50 [2] [nM] |
| --- | --- | --- | --- | --- |
| CCCNC(=O)Nc1ccc2c(c1)C1C3CCC(C3)C1C(c1c(Cl)cccc1Cl)N2 (stereo not drawn) [(26), Bridged 1-(6-(2,6-dichlorophenyl)-5,6,6a,7,8,9,10,10a-octahydrophenanthridin-2-yl)-3-propylurea] | < 40 | > 10000 | < 40 | > 10000 |
| CCCNC(=S)Nc1ccc2c(c1)C1C3CCC(C3)C1C(c1c(Cl)cccc1Cl)N2 (stereo not drawn) [(27), Bridged 1-(6-(2,6-dichlorophenyl)-5,6,6a,7,8,9,10,10a-octahydrophenanthridin-2-yl)-3-propylthiourea] | < 40 | > 10000 | < 40 | > 10000 |
| O=C(NCc1ccccc1)c1ccc2c(c1)C1C3CCC(C3)C1C(c1ccccc1)N2 (stereo not drawn) [(28), Bridged N-benzyl-6-phenyl-5,6,6a,7,8,9,10,10a-octahydrophenanthridine-2-carboxamide] | 84.4 | 373 | < 40 | > 10000 |
| CCCCC(=O)Nc1ccc2c(c1)C1C3CCC(C3)C1C(c1ccc(C)cc1)N2 (stereo not drawn) [(29), Bridged N-(6-p-tolyl-5,6,6a,7,8,9,10,10a-octahydrophenanthridin-2-yl)pentanamide] | 54.8 | 66.7 | < 40 | > 10000 |
| CN(C)S(=O)(=O)c1ccc2c(c1)C1C3CCC(C3)C1C(c1cncnc1)N2 (stereo not drawn) [(30), Bridged N,N-dimethyl-6-(pyrimidin-5-yl)-5,6,6a,7,8,9,10,10a-octahydrophenanthridine-2-sulfonamide] | 99.3 | 72.8 | < 40 | > 10000 |
| CN(C)S(=O)(=O)c1ccc2c(c1)C1C3CCC(C3)C1C(c1nccs1)N2 (stereo not drawn) [(31), Bridged N,N-dimethyl-6-(thiazol-2-yl)-5,6,6a,7,8,9,10,10a-octahydrophenanthridine-2-sulfonamide] | 89.2 | 103 | < 40 | > 10000 |
| CC(=O)Nc1ccc(C2Nc3ccc(S(=O)(=O)N(C)C)cc3C3C4CCC(C4)C23)cc1 (stereo not drawn) [(32), Bridged N-(4-(2-(N,N-dimethylsulfamoyl)-5,6,6a,7,8,9,10,10a-octahydrophenanthridin-6-yl)phenyl)acetamide] | 81.3 | 225 | < 40 | > 10000 |
| CN(C)S(=O)(=O)c1ccc2c(c1)C1C3CCC(C3)C1C(c1ccnn1C)N2 (stereo not drawn) [(33), Bridged N,N-dimethyl-6-(1-methyl-1H-pyrazol-5-yl)-5,6,6a,7,8,9,10,10a-octahydrophenanthridine-2-sulfonamide] | 94.9 | 7.5 | < 40 | > 10000 |
| O=S(=O)(c1ccc2c(c1)C1C3CCC(C3)C1C(c1cncnc1)N2)N1CCOCC1 (stereo not drawn) [(35), Bridged 4-(6-(pyrimidin-5-yl)-5,6,6a,7,8,9,10,10a-octahydrophenanthridin-2-ylsulfonyl)morpholine] | 66.6 | 1300 | < 40 | > 10000 |
| O=S(=O)(c1ccc2c(c1)C1C3CCC(C3)C1C(c1nccs1)N2)N1CCOCC1 (stereo not drawn) [(36), Bridged 4-(6-(thiazol-2-yl)-5,6,6a,7,8,9,10,10a-octahydrophenanthridin-2-ylsulfonyl)morpholine] | 57.1 | 4120 | < 40 | > 10000 |
| Cn1nccc1C1Nc2ccc(S(=O)(=O)N3CCOCC3)cc2C2C3CCC(C3)C12 (stereo not drawn) [(37), Bridged 4-(6-(1-methyl-1H-pyrazol-5-yl)-5,6,6a,7,8,9,10,10a-octahydrophenanthridin-2-ylsulfonyl)morpholine] | 92.6 | 1.7 | < 40 | > 10000 |
| CN(C1CCCCC1)S(=O)(=O)c1ccc2c(c1)C1C3CCC(C3)C1C(c1ccccc1)N2 (stereo not drawn) [(38), Bridged N-cyclohexyl-N-methyl-6-phenyl-5,6,6a,7,8,9,10,10a-octahydrophenanthridine-2-sulfonamide] | 79.5 | 8.5 | < 40 | > 10000 |
| NS(=O)(=O)c1ccc2c(c1)C1C3CCC(C3)C1C(c1ccccc1)N2 (stereo not drawn) [(39), Bridged 6-phenyl-5,6,6a,7,8,9, 10,10a-octahydrophenanthridine-2-sulfonamide] | 83.3 | 17.7 | 172 | 3040 |
| Cn1nccc1C1Nc2ccc(S(N)(=O)=O)cc2C2C3CCC(C3)C12 (stereo not drawn) [(40), Bridged 6-(1-methyl-1H-pyrazol-5-yl)-5,6,6a,7,8,9,10,10a-octahydrophenanthridine-2-sulfonamide] | 82.7 | 2000 | < 40 | > 10000 |
| O=S(=O)(c1ccc2c(c1)C1C3CCC(C3)C1C(c1ccccc1)N2)N1CCCC1 (stereo not drawn) [(41), Bridged 6-phenyl-2-(pyrrolidin-1-ylsulfonyl)-5,6,6a,7,8,9,10,10a-octahydrophenanthridine] | 104 | 0.81 | < 40 | > 10000 |
| Cn1nccc1C1Nc2ccc(S(=O)(=O)N3CCCC3)cc2C2C3CCC(C3)C12 (stereo not drawn) [(42), Bridged 6-(1-methyl-1H-pyrazol-5-yl)-2-(pyrrolidin-1-ylsulfonyl)-5,6,6a,7,8,9,10,10a-octahydrophenanthridine] | 100 | 0.91 | < 40 | > 10000 |
| Cc1nc(-c2ccc3c(c2)C2C4CCC(C4)C2C(c2ccccc2)N3)cs1 (stereo not drawn) [(43), Bridged 2-methyl-4-(6-phenyl-5,6,6a,7,8,9,10,10a-octahydrophenanthridin-2-yl)thiazole] | 64.6 | 217 | 182 | 3850 |
| Cc1nc(-c2ccc3c(c2)C2C4CCC(C4)C2C(c2ccnn2C)N3)cs1 (stereo not drawn) [(44), Bridged 2-methyl-4-(6-(1-methyl-1H-pyrazol-5-yl)-5,6,6a,7,8,9,10,1 0a-octahydrophenanthridin-2-yl)thiazole] | 70.2 | 187 | 111 | 2930 |
| CCCCc1nnc(-c2ccc3c(c2)C2C4CCC(C4)C2C(c2ccccc2)N3)o1 (stereo not drawn) [(45), Bridged 2-butyl-5-(6-phenyl-5,6,6a,7,8,9,10,10a-octahydrophenanthridin-2-yl)-1,3,4-oxadiazole] | 96.8 | 70.4 | < 40 | > 10000 |
| CC(=O)NS(=O)(=O)c1ccc2c(c1)C1C3CCC(C3)C1C(c1ccnn1C)N2 (stereo not drawn) [(47), Bridged N-(6-(1-methyl-1H-pyrazol-5-yl)-5,6,6a,7,8,9,10,10a-octahydrophenanthridin-2-ylsulfonyl)acetamide] | 82.5 | 1490 | < 40 | > 10000 |
| O=S(=O)(c1ccc2c(c1)C1CC=CC1C(c1ccccc1)N2)N1CCCCC1 (stereo not drawn) [(48), 4-phenyl-8-(piperidin-1-ylsulfonyl)-3a,4,5,9b-tetrahydro-1H-cyclopenta[c]quinoline] | 82.3 | 73.9 | < 40 | > 10000 |
